Earlier results, collected in Sander's compilation of Henry's law constants (doi:10.1080/10643389609388492).

Assay: Henry solubility constant Hcp at 298.15 K (mol/(m3 Pa))
Settings: reference: Staudinger and Roberts (1996); cited value

| Structure (SMILES) | Henry solubility constant Hcp |
| --- | --- |
| CC(Cl)(Cl)Cl [1,1,1-trichloroethane] | 0.00058 |
| ClC(Cl)C(Cl)Cl [1,1,2,2-tetrachloroethane] | 0.024 |
| ClCC(Cl)Cl [1,1,2-trichloroethane] | 0.011 |
| C=C(Cl)Cl [1,1-dichloroethene] | 0.00034 |
| ClCC(Cl)CCl [1,2,3-trichloropropane] | 0.034 |
| CC(Cl)CCl (stereo not given) [1,2-dichloropropane] | 0.0034 |
| Cc1ccccc1C [1,2-dimethylbenzene] | 0.0019 |
| Cc1cccc(C)c1 [1,3-dimethylbenzene] | 0.0013 |
| Cc1ccc(C)cc1 [1,4-dimethylbenzene] | 0.0013 |
| O=Cc1ccccc1 [benzaldehyde] | 0.39 |
| c1ccccc1 [benzene] | 0.0016 |
| ClC(Cl)Br [bromodichloromethane] | 0.004 |
| Clc1ccccc1 [chlorobenzene] | 0.0027 |
| CCCl [chloroethane] | 0.00083 |
| C=CCl [chloroethene] | 0.00039 |
| ClC(Br)Br [dibromochloromethane] | 0.0085 |
| ClCCl [dichloromethane] | 0.0036 |
| CCc1ccccc1 [ethylbenzene] | 0.0012 |
| ClC(Cl)(Cl)C(Cl)(Cl)Cl [hexachloroethane] | 0.0025 |
| Cc1ccccc1 [methylbenzene] | 0.0015 |
| CC(C)=O [propanone] | 0.3 |
| ClC(Cl)=C(Cl)Cl [tetrachloroethene] | 0.00058 |
| ClC(Cl)(Cl)Cl [tetrachloromethane] | 0.00034 |
| BrC(Br)Br [tribromomethane] | 0.017 |
| ClC=C(Cl)Cl [trichloroethene] | 0.00099 |
